Measured values: patent US20250281464A1, “TREATMENT OF PATHOGENIC NEISSERIA SP. INFECTION WITH TRIAZOLE ANTIFUNGAL AGENTS” (Virginia Tech Intellectual Properties, Inc., priority 2022, published 2025)
In brackets after ≈: the same amount, converted by molar mass. Where two headings read alike, the source gives them in different places. Each block holds one compound with its values, some of them ahead of it.

Assays:
[1] = tested on: intracellular N. gonorrhoeae FA1090 in endocervical cells (End1/E6E7); details: literature statement [1, 3, 5]; cited from earlier work
N. gonorrhoeae isolates = assay: MIC against panel of N. gonorrhoeae clinical isolates; format: cell-based, Neisseria gonorrhoeae; details: for MIC50 / MIC90 / MIC: Neisseria gonorrhoeae; for MIC50: read-out: MIC50; for MIC90: read-out: MIC90; for MIC: 103 N. gonorrhoeae isolates, read-out: highest MIC value
L. gasseri = assay: MIC against commensal vaginal Lactobacillus strains; format: cell-based, Lactobacillus gasseri; details: for MIC: Lactobacillus gasseri; for MIC Range: Table 6, L. gasseri (4 strains)
Text: (§1) N. gonorrhoeae pathogenesis greatly depends on colonization of the reproductive tract. One of the natural barriers of such colonization is an intact healthy microbiome. Species of lactobacilli present in the genitourinary tract play a significant role in hindering colonization by Neisseria(1).
(§2) A healthy vaginal microbiome that is dominated by Lactobacillus spp. is less susceptible to N. gonorrhoeae infection and other sexually transmitted diseases (STDs). […] We tested the activity of azoles against important members of healthy vaginal microbiota that inhibit N. gonorrhoeae colonization.

[2] = tested on: commensal vaginal lactobacilli strains; assay: MIC against all commensal vaginal Lactobacillus strains tested; format: cell-based, Lactobacillus spp.; details: read-out: MIC
Text: as §1, §2

L. crispatus = assay: MIC against commensal vaginal Lactobacillus strains; format: cell-based, Lactobacillus crispatus; details: for MIC: Lactobacillus crispatus; for MIC Range: Table 6, L. crispatus (3 strains)
Text: as §1, §2

Enterococcus faecium = assay: MIC against normal gut microbiota; format: cell-based; details: Enterococcus faecium (1 strain)
Text: (§3) Disrupting the intestinal microbiota using broad-spectrum antimicrobial therapy increases the susceptibility of hosts to C. difficile colonization.

Lactobacillus brevis = assay: MIC against normal gut microbiota; format: cell-based; details: Lactobacillus brevis (1 strain)
Text: as §3

Lactobacillus casei = assay: MIC against normal gut microbiota; format: cell-based; details: Lactobacillus casei (1 strain)
Text: as §3

Staphylococcus aureus = assay: MIC against normal gut microbiota; format: cell-based; details: Staphylococcus aureus (1 strain)
Text: as §3

Enterococcus faecalis = assay: MIC against normal gut microbiota; format: cell-based; details: Enterococcus faecalis (1 strain)
Text: as §3

Escherichia coli = assay: MIC against normal gut microbiota; format: cell-based; details: Escherichia coli (1 strain)
Text: as §3

[3] = MIC against normal gut microbiota; format: cell-based
Text: as §3

[4] = tested on: Bifidobacterium angulatum; assay: MIC against normal gut microbiota; format: cell-based; details: Bifidobacterium angulatum (1 strain)
Text: as §3

Lactobacillus rhamnosus = assay: MIC against normal gut microbiota; format: cell-based; details: Lactobacillus rhamnosus (1 strain)
Text: as §3

Bacteroides dorei = assay: MIC against normal gut microbiota; format: cell-based; details: Bacteroides dorei (2 strains)
Text: as §3

N. meingitidis = assay: MIC against Neisseria spp.; format: cell-based, Neisseria meningitidis; details: N. meingitidis (5 strains)
N. gonorrhoeae [5] = assay: Post-antibiotic effect (PAE) against N. gonorrhoeae; format: cell-based, Neisseria gonorrhoeae; details: 1 h exposure at 10×MIC
Text: Determining the PAE of a new antimicrobial is an important step for dosing and has clinical importance.

[6] = tested on: resistant N. gonorrhoeae isolates; assay: MIC against resistant N. gonorrhoeae isolates by agar dilution; format: cell-based, Neisseria gonorrhoeae
N. flavescens = assay: MIC against Neisseria spp.; format: cell-based; details: N. flavescens (1 strain)
Text: (§4) Intrigued by the specificity and potent activity of azoles against N. gonorrhoeae, we evaluated the extent of the azoles' antibacterial activity against other Neisseria species (Table 8).

N. mucosa = assay: MIC against Neisseria spp.; format: cell-based; details: N. mucosa (1 strain)
Text: as §4

N. lactamica = assay: MIC against Neisseria spp.; format: cell-based; details: N. lactamica (1 strain)
Text: as §4

L. jensenii = assay: MIC against commensal vaginal Lactobacillus strains; format: cell-based, Lactobacillus jensenii; details: for MIC: Lactobacillus jensenii; for MIC Range: Table 6, L. jensenii (7 strains)
Text: as §1, §2

L. johnsonii = assay: as above; format: cell-based, Lactobacillus johnsonii; details: for MIC: Lactobacillus johnsonii, L. johnsonii HM-643; for MIC Range: Table 6, L. johsonii (2 strains)
Text: as §1, §2

[7] = from single dose; cited from earlier work
N. gonorrhoeae [8] = assay: Drug library screen against N. gonorrhoeae; format: cell-based, Neisseria gonorrhoeae; details: Johns Hopkins Clinical Compounds Library, MCE FDA-Approved Drug Library, Pharmakon library; killing in clinical range
Text: To identify drugs capable of killing Neisseria gonorrhoeae, the Johns Hopkins Clinical Compounds Library (1514), the MCE FDA-Approved Drug Library (2441), and the Pharmakon library (1600) were screened against N. gonorrhoeae. Positive hits that are capable of killing Neisseria gonorrhoeae in clinical range were identified (itraconazole, ravuconazole and isavuconazole).

Bacteroides fragilis = assay: MIC against normal gut microbiota; format: cell-based; details: Bacteroides fragilis (4 strains)
Text: as §3

[9] = Table 1, 104 N. gonorrhoeae isolates
[10] = Table 3, 103 N. gonorrhoeae isolates with different resistance profiles
[11] = Bacteroides adolescentis (2 strains)
[12] = panel of 84 N. gonorrhoeae clinical isolates

MIC50 (N. gonorrhoeae isolates; [9]): 0.03 µg/mL (≈ 0.0541 µM) | MIC90 (N. gonorrhoeae isolates; [9]): 0.06 µg/mL (≈ 0.108 µM) | MIC50 (N. gonorrhoeae isolates; [10]): 0.03 µg/mL (≈ 0.0541 µM) | MIC90 (N. gonorrhoeae isolates; [10]): 0.06 µg/mL (≈ 0.108 µM) | MIC (N. gonorrhoeae isolates): 2 µg/mL (≈ 3.61 µM) | MIC Range (N. gonorrhoeae isolates; [9]): 0.001 to 2 µg/mL | MIC Range (N. gonorrhoeae isolates; [10]): 0.001 to 2 µg/mL | MIC (L. gasseri; L. gasseri HM-407): ≤ 0.5 µg/mL | MIC (L. gasseri; L. gasseri HM-642): 2 µg/mL (≈ 3.61 µM) | MIC (L. gasseri; L. gasseri HM-644): 1 µg/mL (≈ 1.8 µM) | MIC (L. gasseri; L. gasseri HM-647): 1 µg/mL (≈ 1.8 µM) | MIC Range (L. gasseri): ≤1 µg/mL | MIC ([2]; all species/strains of Lactobacillus tested (Example 2)): < 1 µg/mL | MIC (L. crispatus; L. crispatus HM-103): 2 µg/mL (≈ 3.61 µM) | MIC (L. crispatus; L. crispatus HM-371): 1 µg/mL (≈ 1.8 µM) | MIC (L. crispatus; L. crispatus HM-638): 4 µg/mL (≈ 7.21 µM) | MIC Range (L. crispatus): ≤1 to 2 µg/mL | MIC Range (N. meingitidis): 0.004 to 0.008 µg/mL | MIC ([6]; strain CDC-174, agar dilution): 0.25 µg/mL (≈ 0.451 µM) | MIC ([6]; strain CDC-179, agar dilution): 0.015 µg/mL (≈ 0.027 µM) | MIC ([6]; strain CDC-181, agar dilution): 0.06 µg/mL (≈ 0.108 µM) | MIC ([6]; strain WHO-L, agar dilution): 0.5 µg/mL (≈ 0.902 µM) | MIC ([6]; strain WHO-X, agar dilution): 2 µg/mL (≈ 3.61 µM) | MIC ([6]; strain WHO-Y, agar dilution): 1 µg/mL (≈ 1.8 µM) | MIC ([6]; strain WHO-Z, agar dilution): 0.5 µg/mL (≈ 0.902 µM) | MIC Range (N. flavescens): 0.125 µg/mL (≈ 0.225 µM) | MIC Range (N. mucosa): 0.125 µg/mL (≈ 0.225 µM) | MIC Range (N. lactamica): 0.125 µg/mL (≈ 0.225 µM) | MIC (L. jensenii; L. jensenii HM-105): ≤ 0.5 µg/mL | MIC (L. jensenii; L. jensenii HM-372): ≤ 0.5 µg/mL | MIC (L. jensenii; L. jensenii HM-374): 1 µg/mL (≈ 1.8 µM) | MIC (L. jensenii; L. jensenii HM-639): ≤ 0.5 µg/mL | MIC (L. jensenii; L. jensenii HM-640): ≤ 0.5 µg/mL | MIC (L. jensenii; L. jensenii HM-645): ≤ 0.5 µg/mL | MIC (L. jensenii; L. jensenii HM-646): ≤ 0.5 µg/mL | MIC Range (L. jensenii): ≤1 to 2 µg/mL | MIC (L. johnsonii): 2 µg/mL (≈ 3.61 µM) | MIC Range (L. johnsonii): ≤1 µg/mL
Structure (SMILES): CO/N=C(\C(=O)N[C@@H]1C(=O)N2C(C(=O)O)=C(CSc3nc(=O)c(=O)[nH]n3C)CS[C@H]12)c1csc(N)n1 [Ceftriaxone]
ability to clear intracellular N. gonorrhoeae [1]: unable to clear intracellular N. gonorrhoeae | MIC Range (Enterococcus faecium): 8 µg/mL (≈ 14.4 µM) | MIC Range (Lactobacillus brevis): 0.5 µg/mL (≈ 0.902 µM) | MIC Range (Lactobacillus casei): 16 µg/mL (≈ 28.9 µM) | MIC Range (Staphylococcus aureus): 2 µg/mL (≈ 3.61 µM) | MIC Range (Enterococcus faecalis): 8 µg/mL (≈ 14.4 µM) | MIC Range (Escherichia coli): 0.03 µg/mL (≈ 0.0541 µM) | MIC Range [3, 11]: 0.125 µg/mL (≈ 0.225 µM) | MIC Range ([3]; Bacteroides breve (2 strains)): 1 to 4 µg/mL | MIC Range ([3]; Bacteroides longum (2 strains)): 4 µg/mL (≈ 7.21 µM) | MIC Range [4]: 0.125 µg/mL (≈ 0.225 µM) | MIC Range (Lactobacillus rhamnosus): 16 µg/mL (≈ 28.9 µM) | MIC Range (Bacteroides dorei): 4 to 16 µg/mL | PAE (N. gonorrhoeae [5]; strain FA 1090): 4 h | PAE (N. gonorrhoeae [5]; strain WHO P): 8 h | PAE (N. gonorrhoeae [5]; strain WHO Y): 6 h

Structure (SMILES): C[C@@H](c1nc(-c2ccc(C#N)cc2)cs1)[C@](O)(Cn1cncn1)c1ccc(F)cc1F [Ravuconazole]
MIC50 (N. gonorrhoeae isolates; [9]): 0.03 µg/mL (≈ 0.0686 µM) | MIC90 (N. gonorrhoeae isolates; [9]): 0.06 µg/mL (≈ 0.137 µM) | MIC50 (N. gonorrhoeae isolates; [10]): 0.03 µg/mL (≈ 0.0686 µM) | MIC90 (N. gonorrhoeae isolates; [10]): 0.06 µg/mL (≈ 0.137 µM) | MIC50 (N. gonorrhoeae isolates; [12]): 0.03 µg/mL (≈ 0.0686 µM) | MIC90 (N. gonorrhoeae isolates; [12]): 0.06 µg/mL (≈ 0.137 µM) | MIC (N. gonorrhoeae isolates): 0.25 µg/mL (≈ 0.571 µM) | MIC Range (N. gonorrhoeae isolates; [10]): 0.002 to 0.25 µg/mL | fold more potent antimicrobial activity than isavuconazole (N. gonorrhoeae isolates; from Table 3 and Table 8): ≥ 125 fold | half-life [7]: up to 8 days | MIC (L. gasseri; L. gasseri HM-407): > 256 µg/mL | MIC (L. gasseri; L. gasseri HM-642): > 256 µg/mL | MIC (L. gasseri; L. gasseri HM-644): > 256 µg/mL | MIC (L. gasseri; L. gasseri HM-647): > 256 µg/mL | MIC Range (L. gasseri): ≥256 µg/mL | MIC ([2]; Lactobacillus, all strains of lactobacilli (Example 1 text)): > 256 µg/mL | screening outcome (N. gonorrhoeae [8]): Positive hits | MIC (L. crispatus; L. crispatus HM-103): > 256 µg/mL | MIC (L. crispatus; L. crispatus HM-371): > 256 µg/mL | MIC (L. crispatus; L. crispatus HM-638): > 256 µg/mL | MIC Range (L. crispatus): ≥256 µg/mL | MIC Range (Enterococcus faecium): >256 µg/mL | MIC Range (Lactobacillus brevis): >256 µg/mL | MIC Range (Lactobacillus casei): >256 µg/mL | MIC Range (Staphylococcus aureus): >256 µg/mL | MIC Range (Enterococcus faecalis): >256 µg/mL | MIC Range (Bacteroides fragilis): >256 µg/mL | MIC Range (Escherichia coli): >256 µg/mL | MIC Range [3, 11]: >256 µg/mL | MIC Range ([3]; Bacteroides breve (2 strains)): >256 µg/mL | MIC Range ([3]; Bacteroides longum (2 strains)): >256 µg/mL | MIC Range [4]: >256 µg/mL | MIC Range (Lactobacillus rhamnosus): >256 µg/mL | MIC Range (Bacteroides dorei): >256 µg/mL | MIC Range (N. meingitidis): 0.004 to 0.008 µg/mL | PAE (N. gonorrhoeae [5]; strain FA 1090): 12 h | PAE (N. gonorrhoeae [5]; strain WHO P): >16 h | PAE (N. gonorrhoeae [5]; strain WHO Y): 16 h | MIC ([6]; strain CDC-174, agar dilution): 0.25 µg/mL (≈ 0.571 µM) | MIC ([6]; strain CDC-179, agar dilution): 0.06 µg/mL (≈ 0.137 µM) | MIC ([6]; strain CDC-181, agar dilution): 0.25 µg/mL (≈ 0.571 µM) | MIC ([6]; strain WHO-L, agar dilution): 0.25 µg/mL (≈ 0.571 µM) | MIC ([6]; strain WHO-X, agar dilution): 0.25 µg/mL (≈ 0.571 µM) | MIC ([6]; strain WHO-Y, agar dilution): 0.25 µg/mL (≈ 0.571 µM) | MIC ([6]; strain WHO-Z, agar dilution): 0.25 µg/mL (≈ 0.571 µM) | MIC Range (N. flavescens): 0.125 µg/mL (≈ 0.286 µM) | MIC Range (N. mucosa): 0.125 µg/mL (≈ 0.286 µM) | MIC Range (N. lactamica): 0.03 µg/mL (≈ 0.0686 µM) | MIC (L. jensenii; L. jensenii HM-105): > 256 µg/mL | MIC (L. jensenii; L. jensenii HM-372): > 256 µg/mL | MIC (L. jensenii; L. jensenii HM-374): > 256 µg/mL | MIC (L. jensenii; L. jensenii HM-639): > 256 µg/mL | MIC (L. jensenii; L. jensenii HM-640): > 256 µg/mL | MIC (L. jensenii; L. jensenii HM-645): > 256 µg/mL | MIC (L. jensenii; L. jensenii HM-646): > 256 µg/mL | MIC Range (L. jensenii): ≥256 µg/mL | MIC (L. johnsonii): > 256 µg/mL | MIC Range (L. johnsonii): ≥256 µg/mL
